The results in this text go back to article PMC11946258, “Self-Assembly, Antimicrobial Properties and Biodegradability of Ester-Functionalized Choline-Based Surface-Active Ionic Liquids” (Molecules, 2025).

By EC50 is commonly meant the concentration at which the effect is half-maximal. As a reminder, the MIC is the smallest concentration in the dilution series that meets the test's criterion for growth inhibition. For orientation: inhibition means the drop in the measured response relative to a control, in per cent.

Data set [1] relates to MRSA biofilms. The format is cell-based, methicillin-resistant Staphylococcus aureus. As to conditions: MRSA biofilm, MTT. The protocol:
The biocidal activity of the ester-functionalized choline-based ILs on bacterial and fungal cells in biofilms was assessed by MTT cell viability assays. CnECholBr were evaluated for their potential to kill cells in pre-established biofilms of MRSA and C. albicans, two clinically relevant pathogens. Pre-formed biofilms on 48-wells plates were treated with increasing concentrations of the ester-functionalized choline-based ILs and the cell viability of the sessile cells was quantified by the MTT method. The results obtained for MRSA and C. albicans biofilms are shown in Figure 6a and Figure 6b, respectively.
(§1) Antibiofilm activity was assessed against biofilm-forming strains of methicillin-resistant Staphylococcus aureus (MRSA) ATCC 43300 and Candida albicans ATCC 90028. The biofilm inhibition and eradication capacities of ILs were evaluated against adherent bacterial biofilms grown in 96-well microtiter plates. Bacteria were grown on Tryptic soy agar at 37 °C for 24 h and the fungi on Sabouraud agar at 30 °C for 24 h. Bacteria were suspended in lysogeny broth containing glucose (1%) at 1.5 × 10^8 CFU/mL and yeasts were suspended in RPMI medium at 1.5 × 10^7 CFU/mL.
For mature biofilm formation, 200 μL of the bacterial or fungal suspension was added to each well in a 48-well microplate, and incubated for 24 h at 37 °C for bacteria and 30 °C for yeast. The wells were then washed three times with PBS and 200 µL of each test solution with different concentrations of surfactants prepared in MHB (for bacteria) or RPMI medium (for yeasts) was added to each well containing the preformed biofilm. The plates were incubated for 24 h at 30 °C. The medium was removed and the wells were then washed twice with PBS. MTT solution (200 μL) was added to each well and the plate was incubated for 4 h. The MTT was then removed and 200 μL of DMSO was added to solubilize […]. The OD value was recorded at 540 nm. Controls were performed with non-ionic liquids. Each assay was run four times and the results were averaged.

A further data set concerns Vibrio fischeri. The data set is described as follows: Vibrio fischeri bioluminescence inhibition assay. The format is cell-based. The note with it: Aliivibrio fischeri, 0.5 h; luminescence inhibition, 30-min exposure, 15 °C; read-out: V. fisheri, EC50 (95% CI). The protocol:
To assess the aquatic toxicity of ester-functionalized cholinium-based ILs, a series of toxicity tests were conducted using the saltwater bacterium Vibrio fischeri. The bioluminescence inhibition assay with V. fischeri is a well-standardized and frequently employed method in ecotoxicological studies due to its sensitivity and reliability. The experimental procedure involved exposing V. fischeri to increasing concentrations of ILs and measuring the reduction in bioluminescence after a 30-min period. This bioluminescence reduction serves as a quantitative indicator of the ILs’ aquatic toxicity in marine bacteria.
The V. fisheri bioluminescence assay was used to assess the aquatic toxicity of ester-functionalized choline-based ILs. […] We determined the concentration causing a 50% reduction in bacterial light emission (EC50) through regression analysis. The reported toxicity data are based on a 30-min exposure of the bacteria to the ionic liquid solution at 15 °C.

Data set [2] deals with MRSA biofilms. The data set is described as follows: MRSA mature biofilm eradication (crystal violet). The data set is classed as cell-based, methicillin-resistant Staphylococcus aureus. As to conditions: CV staining, up to the highest tested concentration of 256 µg/mL. The protocol:
The capacity of the ester-functionalised cholinium-based ILs to eradicate established MRSA biofilms was evaluated through the performance of eradication assays on microtiter plates. CV staining was applied to measure biofilm biomass.
as §1
To evaluate the effect of ionic liquids on mature biofilms, we employed a modified microtiter plate assay. We first generated mature biofilms by incubating 200 μL of diluted bacterial suspension in each well of a 96-well plate for 24 h at 37 °C. After gently washing the biofilms with PBS, we added 200 μL of ionic liquid solution at various concentrations (4–256 μg/mL, using two-fold serial dilutions) to each well and incubated for an additional 24 h at 37 °C. Following treatment, we fixed the biofilms with 150 μL methanol for 10 min. The subsequent crystal violet (CV) staining and quantification steps were performed as described in the previous biofilm formation assay (Section 3.6.1), allowing us to assess the impact of ionic liquids on established biofilms.

The next data set deals with MRSA. Briefly: MIC broth microdilution. The data set is classed as cell-based, methicillin-resistant Staphylococcus aureus. The note with it: Staphylococcus aureus, ATCC 43300 / MRSA; MRSA ATCC 43300, 24 h, 37 °C. The protocol:
The antimicrobial activity of cholinium-based ILs with an ester group in the alkyl chain was evaluated against a range of representative bacteria and fungi.
Antibacterial assays were performed against the following microorganisms: Bacillus subtilis ATCC 6633, Staphylococcus epidermidis ATCC 12228, Staphylococcus aureus ATCC 29213, Micrococcus luteus ATCC10240, Listeria monocytogenes ATCC 15313, methicillin-resistant Staphylococcus aureus ATCC 43300, Escherichia coli ATCC 8739, Acinetobacter baumannii ATCC 19606, Klebsiella aerogenes ATCC 13048, Pseudomonas aeruginosa 9027, and Salmonella enterica ATCC14208. The antibacterial activity was assessed in vitro using the minimum inhibitory concentration (MIC) method. MIC is defined as the lowest concentration of an antimicrobial agent that prevents visible bacterial growth after 24 h of incubation at 37 °C. The ionic liquids were dissolved in Mueller–Hinton broth (MBH) at concentrations ranging from 1 to 256 μg/mL. The broth was added (200 μL) to appropriate wells of a 96-well polystyrene microtitre plate. Then, 10 μL of a nutrient broth starter culture of each bacterial strain was added to achieve final inocula of approximately […] colony forming units (CFU)/mL. A growth control using nutrient broth medium without the ionic liquid was included. The plates were incubated 37 °C for 24 h. Bacterial growth was initially observed visually, with increased turbidity indicating cell growth. […] A color change of resazurine from blue to pink indicated bacterial metabolic activity. All the experiments were performed in triplicate to ensure reproducibility.
(In general: Dilution methods test growth across graded concentrations, often in twofold steps.)

A further data set relates to MRSA biofilm. Briefly: MRSA biofilm formation inhibition (crystal violet). The format is cell-based, methicillin-resistant Staphylococcus aureus. As to conditions: Staphylococcus aureus, at 128 µg/mL (highest concentration tested), 24 h, 37 °C, CV staining. The protocol: To assess the ability of ester-functionalized cholinium-based ILs to suppress MRSA biofilm formation, CnECholBr samples were introduced to newly prepared bacterial suspensions. These mixtures were then incubated for 24 h at 37 °C. Subsequently, crystal violet (CV) staining was employed to quantify the biofilm biomass. The findings from this experiment are illustrated in Figure 4.
as §1
To assess the effect of ionic liquids on bacterial biofilm formation, we employed a microplate assay. We added 100 μL of IL at varying concentrations (2–128 μg/mL, using two-fold serial dilutions) to each well of a 96-well microplate, followed by 100 μL of diluted bacterial suspension. After incubating the plates at 37 °C for 24 h, we measured bacterial growth by recording the optical density at 600 nm (OD600). We then discarded the spent media, fixed the biofilm with methanol, and stained it with crystal violet. Following a water rinse, we dissolved the stained biofilm using an ethanol-acetic acid solution and measured the absorbance at 570 nm to quantify biofilm formation. To ensure reproducibility, we performed each assay in triplicate and averaged the results.

For `CCCCCCCCCCOC(=O)C[N+](C)(C)CCO` [C10ECholBr], the “reduction in cell viability” value in the data set on MRSA biofilms [1] (at 32 µg/mL) worked out at 50%. In addition, the 50% effective concentration (EC50) with Vibrio fischeri was 1.7 µg/mL. Moreover, the biofilm biomass removal entry with MRSA biofilms [2] is “less than 20%”. For the same compound, the MIC in the data set on MRSA is > 256 µg/mL. Further, in the data set on MRSA biofilm, the inhibition at 128 µg/mL was < 15%.
With `CCCCCCCCCCCCOC(=O)C[N+](C)(C)CCO` [C12ECholBr], in the data set with MRSA biofilms [1] (concentrations ≥ 128 µg/mL), the “inhibition of cell viability” value is given as > 95%. Moreover, in the data set with Vibrio fischeri, the EC50 is 0.27 µg/mL. The biofilm biomass removal in the data set with MRSA biofilms [2] is recorded as ≤ 60%. In the data set on MRSA, the MIC turned out to be 64 µg/mL. The inhibition at 128 µg/mL with MRSA biofilm was > 90%.
Regarding `CCCCCCCCCCCCCCOC(=O)C[N+](C)(C)CCO.[Br-]` [C14ECholBr, N-(2-hydroxyethyl)-N,N-dimethyl-2-oxo-2-(tetradecyloxy)ethan-1-aminium bromide], the cell viability entry in the data set on MRSA biofilms [1] (plateau at and above 128 µg/mL) is “around 30%”. In addition, in the data set with Vibrio fischeri, the EC50 came to 0.44 µg/mL. Moreover, the biofilm biomass removal with MRSA biofilms [2] is given as ≤ 60%. In addition, the MIC with MRSA was > 256 µg/mL. Also, the inhibition at 128 µg/mL with MRSA biofilm is ≤ 50%.
